How the values were obtained:
[1] = Molar enthalpy of transition or fusion; conditions: Crystal; Adiabatic calorimetry
[2] = Crystal; Adiabatic calorimetry
[3] = molar heat capacity at constant pressure; conditions: 101.33 kPa, Small (less than 1 g) adiabatic calorimetry

c1ccc(Oc2ccccc2)cc1 [diphenyl ether]
Conditions	Molar enthalpy of transition or fusion [kcal/mol]	Triple point temperature [K]
[1]	4.092	–
[2]	–	299.96

[3]
Conditions	molar heat capacity at constant pressure [J/K/mol]
282.08 K, Crystal	202.2
283.34 K, Crystal	202.92
285.84 K, Crystal	203.66
287.09 K, Crystal	205.43
288.33 K, Crystal	206.1
289.59 K, Crystal	207.25
290.84 K, Crystal	208.01
292.1 K, Crystal	209.17
321.46 K, Liquid	276.46
323.17 K, Liquid	278.21
324.89 K, Liquid	278.93
326.63 K, Liquid	279.41
328.37 K, Liquid	279.66
330.1 K, Liquid	280.76
331.85 K, Liquid	281.87
333.61 K, Liquid	282.69
335.38 K, Liquid	283.24
